Data as given in ChEMBL document CHEMBL3885861, “Open TG-GATES”.

Species: Rattus norvegicus
Test: Open TG-GATES - Regimen: Daily Repeat
Assay type: toxicity, organism-based, Sprague-Dawley
Set-up: regimen Daily Repeat, gender Male, age 6 weeks
Conditions: in vivo, po, route gavage; for APTT / Bas / Eos / Fbg / Hb / Ht / Lym / MCH / MCHC / MCV / Mono / Neu / PT / Plat / RBC / Ret / WBC: tissue Blood; for KIDNEY_L / KIDNEY_R / KIDNEY_TOTAL: tissue Kidney; for LIVER: tissue Liver; for A/G / ALP / ALT / AST / BUN / CRE / Ca / Cl / DBIL / GLC / IP / K / LDH / Na / PL / RALB / TBIL / TC / TG / TP / gamma-GTP: tissue Plasma
[1] = 0 mg/kg, 72 h, dose level Control, time 3 day
[2] = 0 mg/kg, […], dose level Control, time 7 day
[3] = 0 mg/kg, […], dose level Control, time 14 day
[4] = 0 mg/kg, […], dose level Control, time 28 day
[5] = 30 mg/kg, 72 h, dose level Low, time 3 day
[6] = 30 mg/kg, […], dose level Low, time 7 day
[7] = 30 mg/kg, […], dose level Low, time 14 day
[8] = 30 mg/kg, […], dose level Low, time 28 day

## ClC(Cl)(Cl)Cl [CARBON TETRACHLORIDE]
[1]
  TERMINAL_BW: 223.2 g
  APTT: 17 s
  Bas: 0%
  Eos: 1%
  Fbg: 234.4 mg/dL
  Hb: 13.7 g/dL
  Ht: 40.1%
  Lym: 82.4%
  MCH: 21.8 pg
  MCHC: 34.2%
  MCV: 63.7 fL
  Mono: 2.8%
  Neu: 13%
  PT: 11.6 s
  Plat: 129.5 x10_4/uL
  RBC: 629.2 x10_4/ul
  Ret: 7.4%
  WBC: 96.4 x10_2/uL
  KIDNEY_L: 0.9 g
  KIDNEY_R: 1 g
  KIDNEY_TOTAL: 1.9 g
  LIVER: 10.9 g
  A/G: 1.5
  ALP: 1075.2 IU/L
  ALT: 44.8 IU/L
  AST: 71.2 IU/L
  BUN: 16.2 mg/dL
  CRE: 0.4 mg/dL
  Ca: 10.9 mg/dL
  Cl: 103 meq/L
  DBIL: 0.08 mg/dL
  GLC: 206.4 mg/dL
  IP: 7.5 mg/dL
  K: 3.9 meq/L
  LDH: 208.6 IU/L
  Na: 140 meq/L
  PL: 155.4 mg/dL
  RALB: 3.2 g/dL
  TBIL: 0.1 mg/dL
  TC: 82.4 mg/dL
  TG: 86.6 mg/dL
  TP: 5.5 g/dL
  gamma-GTP: 1 IU/L
[2]
  TERMINAL_BW: 257 g
  APTT: 18.3 s
  Bas: 0%
  Eos: 1%
  Fbg: 249.4 mg/dL
  Hb: 13.9 g/dL
  Ht: 40.1%
  Lym: 84.6%
  MCH: 21.6 pg
  MCHC: 34.8%
  MCV: 61.9 fL
  Mono: 2.6%
  Neu: 11.2%
  PT: 11.5 s
  Plat: 129.8 x10_4/uL
  RBC: 647.4 x10_4/ul
  Ret: 6.1%
  WBC: 111 x10_2/uL
  KIDNEY_L: 1 g
  KIDNEY_R: 1 g
  KIDNEY_TOTAL: 2.1 g
  LIVER: 12.5 g
  A/G: 1.7
  ALP: 922.4 IU/L
  ALT: 34.2 IU/L
  AST: 62.4 IU/L
  BUN: 16.2 mg/dL
  CRE: 0.4 mg/dL
  Ca: 10.7 mg/dL
  Cl: 104 meq/L
  DBIL: 0.1 mg/dL
  GLC: 204.2 mg/dL
  IP: 7.4 mg/dL
  K: 4.2 meq/L
  LDH: 201.8 IU/L
  Na: 139.8 meq/L
  PL: 165.4 mg/dL
  RALB: 3.5 g/dL
  TBIL: 0.2 mg/dL
  TC: 81.8 mg/dL
  TG: 126.4 mg/dL
  TP: 5.5 g/dL
  gamma-GTP: 1.2 IU/L
[3]
  TERMINAL_BW: 300.9 g
  APTT: 20.1 s
  Bas: 0%
  Eos: 0.8%
  Fbg: 239 mg/dL
  Hb: 14.6 g/dL
  Ht: 42.9%
  Lym: 80.8%
  MCH: 20 pg
  MCHC: 34%
  MCV: 58.9 fL
  Mono: 2.6%
  Neu: 15%
  PT: 11.5 s
  Plat: 124 x10_4/uL
  RBC: 728 x10_4/ul
  Ret: 3.9%
  WBC: 114.8 x10_2/uL
  KIDNEY_L: 1.2 g
  KIDNEY_R: 1.1 g
  KIDNEY_TOTAL: 2.3 g
  LIVER: 12.6 g
  A/G: 1.4
  ALP: 813 IU/L
  ALT: 29.8 IU/L
  AST: 60.2 IU/L
  BUN: 14 mg/dL
  CRE: 0.5 mg/dL
  Ca: 10.4 mg/dL
  Cl: 103.8 meq/L
  DBIL: 0.062 mg/dL
  GLC: 215.8 mg/dL
  IP: 7.3 mg/dL
  K: 3.7 meq/L
  LDH: 209.6 IU/L
  Na: 142.4 meq/L
  PL: 135.6 mg/dL
  RALB: 3.5 g/dL
  TBIL: 0.1 mg/dL
  TC: 69 mg/dL
  TG: 73.4 mg/dL
  TP: 5.9 g/dL
  gamma-GTP: 1 IU/L
[4]
  TERMINAL_BW: 389 g
  APTT: 22.7 s
  Bas: 0%
  Eos: 1%
  Fbg: 227.4 mg/dL
  Hb: 15.1 g/dL
  Ht: 43.7%
  Lym: 83.8%
  MCH: 19.3 pg
  MCHC: 34.6%
  MCV: 55.7 fL
  Mono: 2.6%
  Neu: 11.8%
  PT: 11.9 s
  Plat: 120.7 x10_4/uL
  RBC: 785.8 x10_4/ul
  Ret: 2.8%
  WBC: 121 x10_2/uL
  KIDNEY_L: 1.3 g
  KIDNEY_R: 1.4 g
  KIDNEY_TOTAL: 2.7 g
  LIVER: 16.7 g
  A/G: 1.4
  ALP: 495 IU/L
  ALT: 31.2 IU/L
  AST: 60.4 IU/L
  BUN: 16.4 mg/dL
  CRE: 0.5 mg/dL
  Ca: 10.5 mg/dL
  Cl: 102.2 meq/L
  DBIL: 0.07 mg/dL
  GLC: 238 mg/dL
  IP: 6.9 mg/dL
  K: 3.9 meq/L
  LDH: 211.6 IU/L
  Na: 140.4 meq/L
  PL: 143.8 mg/dL
  RALB: 3.5 g/dL
  TBIL: 0.1 mg/dL
  TC: 72.4 mg/dL
  TG: 83 mg/dL
  TP: 6 g/dL
  gamma-GTP: 0.8 IU/L
[5]
  TERMINAL_BW: 222 g
  APTT: 18.7 s
  Bas: 0%
  Eos: 1%
  Fbg: 237.4 mg/dL
  Hb: 13.4 g/dL
  Ht: 39.2%
  Lym: 77.4%
  MCH: 22.1 pg
  MCHC: 34.1%
  MCV: 64.8 fL
  Mono: 2.4%
  Neu: 18.8%
  PT: 11.6 s
  Plat: 134.7 x10_4/uL
  RBC: 606.8 x10_4/ul
  Ret: 7.5%
  WBC: 108.2 x10_2/uL
  KIDNEY_L: 1 g
  KIDNEY_R: 1 g
  KIDNEY_TOTAL: 1.9 g
  LIVER: 11.4 g
  A/G: 1.4
  ALP: 1206 IU/L
  ALT: 44.4 IU/L
  AST: 65.8 IU/L
  BUN: 15.2 mg/dL
  CRE: 0.4 mg/dL
  Ca: 10.8 mg/dL
  Cl: 103.4 meq/L
  DBIL: 0.072 mg/dL
  GLC: 197.8 mg/dL
  IP: 7.3 mg/dL
  K: 4 meq/L
  LDH: 206.4 IU/L
  Na: 140.6 meq/L
  PL: 166 mg/dL
  RALB: 3.2 g/dL
  TBIL: 0.1 mg/dL
  TC: 86.6 mg/dL
  TG: 72.6 mg/dL
  TP: 5.6 g/dL
  gamma-GTP: 1.4 IU/L
[6]
  TERMINAL_BW: 246 g
  APTT: 19.6 s
  Bas: 0%
  Eos: 0.8%
  Fbg: 232.6 mg/dL
  Hb: 14.1 g/dL
  Ht: 41%
  Lym: 82%
  MCH: 21.2 pg
  MCHC: 34.5%
  MCV: 61.7 fL
  Mono: 2.6%
  Neu: 14%
  PT: 11.9 s
  Plat: 112.6 x10_4/uL
  RBC: 666.4 x10_4/ul
  Ret: 5.5%
  WBC: 96.8 x10_2/uL
  KIDNEY_L: 1 g
  KIDNEY_R: 1 g
  KIDNEY_TOTAL: 2.1 g
  LIVER: 12.4 g
  A/G: 1.6
  ALP: 1004.8 IU/L
  ALT: 39.2 IU/L
  AST: 70.8 IU/L
  BUN: 14.8 mg/dL
  CRE: 0.4 mg/dL
  Ca: 10.7 mg/dL
  Cl: 104.8 meq/L
  DBIL: 0.076 mg/dL
  GLC: 200.8 mg/dL
  IP: 7.7 mg/dL
  K: 4.1 meq/L
  LDH: 202 IU/L
  Na: 141.6 meq/L
  PL: 159.8 mg/dL
  RALB: 3.5 g/dL
  TBIL: 0.1 mg/dL
  TC: 75.2 mg/dL
  TG: 87.2 mg/dL
  TP: 5.6 g/dL
  gamma-GTP: 1.2 IU/L
[7]
  TERMINAL_BW: 300.3 g
  APTT: 20.3 s
  Bas: 0%
  Eos: 0.8%
  Fbg: 238.4 mg/dL
  Hb: 14.6 g/dL
  Ht: 43%
  Lym: 80%
  MCH: 20.1 pg
  MCHC: 33.9%
  MCV: 59.4 fL
  Mono: 2%
  Neu: 16.8%
  PT: 12 s
  Plat: 113.3 x10_4/uL
  RBC: 724.8 x10_4/ul
  Ret: 3.7%
  WBC: 110.3 x10_2/uL
  KIDNEY_L: 1.2 g
  KIDNEY_R: 1.2 g
  KIDNEY_TOTAL: 2.3 g
  LIVER: 14.4 g
  A/G: 1.5
  ALP: 898.4 IU/L
  ALT: 42.2 IU/L
  AST: 75 IU/L
  BUN: 15.4 mg/dL
  CRE: 0.4 mg/dL
  Ca: 10.5 mg/dL
  Cl: 103.4 meq/L
  DBIL: 0.056 mg/dL
  GLC: 201.4 mg/dL
  IP: 8 mg/dL
  K: 3.7 meq/L
  LDH: 207.4 IU/L
  Na: 141.6 meq/L
  PL: 138.6 mg/dL
  RALB: 3.6 g/dL
  TBIL: 0.1 mg/dL
  TC: 67.4 mg/dL
  TG: 55 mg/dL
  TP: 6 g/dL
  gamma-GTP: 1 IU/L
[8]
  TERMINAL_BW: 401.4 g
  APTT: 21.2 s
  Bas: 0%
  Eos: 1%
  Fbg: 238 mg/dL
  Hb: 14.8 g/dL
  Ht: 43.3%
  Lym: 85.4%
  MCH: 19.1 pg
  MCHC: 34.2%
  MCV: 55.8 fL
  Mono: 2.8%
  Neu: 10.2%
  PT: 12.3 s
  Plat: 113.3 x10_4/uL
  RBC: 776.8 x10_4/ul
  Ret: 2.8%
  WBC: 104.8 x10_2/uL
  KIDNEY_L: 1.3 g
  KIDNEY_R: 1.3 g
  KIDNEY_TOTAL: 2.7 g
  LIVER: 19.2 g
  A/G: 1.3
  ALP: 634.2 IU/L
  ALT: 40 IU/L
  AST: 75.2 IU/L
  BUN: 17.2 mg/dL
  CRE: 0.4 mg/dL
  Ca: 10.6 mg/dL
  Cl: 102.2 meq/L
  DBIL: 0.072 mg/dL
  GLC: 211.2 mg/dL
  IP: 6.6 mg/dL
  K: 3.9 meq/L
  LDH: 228 IU/L
  Na: 140.6 meq/L
  PL: 132 mg/dL
  RALB: 3.5 g/dL
  TBIL: 0.1 mg/dL
  TC: 59.6 mg/dL
  TG: 86.6 mg/dL
  TP: 6.2 g/dL
  gamma-GTP: 0.8 IU/L
